Converted amounts (≈) assume the structure as drawn. Read-outs that look alike come from different tables or passages of the source. *1 amine or outer side, *2 acyl side, *3 side chain or, on linkers, in order; H or OH if unused. Where a SMILES comes first, the peptide text is derived from it. Bridges are numbered along the chain shown (N, C = ends). [ ]: non-standard residue; d: D form. The star is where a group is joined. ξ: configuration not given here. Phe(3,5-F2) = N[C@@H](Cc1cc(F)cc(F)c1)C(=O)O; NH(4-OCF3-phenyl) = FC(F)(F)Oc1ccc(N*)cc1; ξPro(4S-Me) = C[C@@H]1CNC(C(=O)O)C1; Heptenoyl(2E) = CCCC/C=C/C(=O)*; NH(4-Me-phenyl) = Cc1ccc(N*)cc1; aThr = C[C@H](O)[C@H](N)C(=O)O; X5 = O=C(C1COCCN1[*:1])[*:2]; Pip = O=C(O)[C@@H]1CCCCN1; NMeA = CN[C@@H](C)C(=O)O; CO = O=C([*:1])[*:2]; ξP = O=C(O)C1CCCN1
Assays:
Type in all cases: cell-based
[1] = test system: Vero (kidney epithelial cells; ATCC CCL-81); assay: Cytotoxicity assay (CellTiter-Glo cell viability, 72 hours)
Protocol: Cytotoxicity was determined by determining the effect of compounds on cell viability. Vero (kidney epithelial cells; ATCC CCL-81) monolayers were trypsinized and 5000 cells/well were seeded (10-15% confluency) into white-wall, flat bottom 96 well microwell plates (Corning) using enriched Dulbecco's Modified Eagle's Medium (Hyclone:DMEM/High Glucose) containing 10% Fetal Bovine Serum (ATCC-30-2020). Plates were incubated overnight at 37° C. in the presence of 5% CO2. Drug-free media was then replaced with media containing serial dilutions of test compound or DMSO carrier. After an additional 72 hours of incubation, viability was indirectly measured using the CellTiter-Glo® Luminescent Cell Viability (Promega) assay. Assay plates were read at peak emission wavelength of 560 nm using a EnVision® Multilabel Plate Reader (Perkin Elmer) or PHERAstar FS Multilabel reader (BMG, Cary, N.C.). […] USA, www.graphpad.com]. For each experiment, compounds were tested in duplicate. IC50 values presented are the range of two biologically independent experiments.

[2] = test system: Bacillus subtilis, ATCC 23857; assay: Minimal inhibitory concentration assay (microbroth dilution)
How it was run: (§1)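 CLSI broth microdilution; 2-fold series from 200 μM final; inoculum ~10^5 cfu/mL; 37 °C, aerobic, overnight; visual MIC = lowest conc. without growth. The ClpP-inactivated USA 300 strain is the comparator for ClpP-dependent killing.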

[3] = test system: Staphylococcus aureus, ATCC 29213; assay: as above; details: ATCC29213, read-out: Minimal Inhibitory Concentrations S. aureus ATCC 29213
How it was run: as §1

[4] = test system: Staphylococcus aureus, NRS70; assay: as above
How it was run: as §1

[5] = test system: Streptococcus pyogenes, ATCC 700294; assay: as above
How it was run: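 CLSI broth microdilution: two-fold serial compound dilutions in appropriate broth, inoculated and incubated aerobically overnight at 37° C. MIC read visually as lowest concentration preventing bacterial growth.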

[6] = test system: Staphylococcus aureus, USA 300 wherein ClpP is inactivated; assay: Minimal inhibitory concentration assay
How it was run: as §1

[7] = test system: Staphylococcus aureus, USA 300; assay: Minimal inhibitory concentration assay; details: USA300, read-out: Minimal Inhibitory Concentrations S. aureus USA 300
How it was run: as §1

[8] = test system: Streptococcus pneumoniae, R6; assay: Minimal inhibitory concentration assay; details: read-out: Minimal Inhibitory Concentrations S. pneumoniae R6
Protocol: It is understood, that in various aspects, the MIC is determined by a microbroth dilution method. […] In a still further aspect, the MIC is determined by a microbroth dilution method using Staphylococcus aureus, NRS70. […] In an even further aspect, the MIC is determined by a microbroth dilution method using Streptococcus pneumoniae, DAW27. […] In an even further aspect, the MIC is determined using Staphylococcus aureus, USA 300. In a still further aspect, the MIC is determined using Streptococcus pneumoniae, R6. In a further aspect, the MIC is determined using Staphylococcus aureus, USA 300 and compared to the MIC determined using Staphylococcus aureus, USA 300 wherein ClpP is inactivated, thus allowing confirmation that killing is via a ClpP-dependent pathway.
Two fold serial dilutions of test compound in 100 μL of the appropriate broth media were first prepared in 96-well round bottom microtiter plates (Nalgene Nunc International, Rochester, N.Y., USA). […] The plates were then incubated aerobically at 37° C. All strains were incubated overnight. After incubations, in all cases the MIC was recorded as the lowest concentration of drug that prevented bacterial growth. The bacterial strains for which MIC was determined as described in Table 4.

[9] = test system: Enterococcus faecalis, ATCC 33186; assay: Minimal inhibitory concentration assay (microbroth dilution); details: Enterococcus faecalis, ATCC33186; read-out: Minimal Inhibitory Concentrations E. faecalis ATCC 33186
How it was run: as §1

[10] = Bacillus subtilis, ATCC23857; read-out: Minimal Inhibitory Concentrations B. subtilis ATCC 23857
[11] = Staphylococcus aureus, NRS70; read-out: Minimal Inhibitory Concentrations S. aureus NRS70
[12] = Streptococcus pyogenes, ATCC700294; read-out: Minimal Inhibitory Concentrations S. pyogenes ATCC 700294
[13] = Vero cells, 72 hours, growth inhibition, read-out: Cytotoxicity IC50
[14] = Bacillus subtilis, ATCC23857, read-out: Minimal Inhibitory Concentrations B. subtilis ATCC 23857
[15] = Staphylococcus aureus, NRS70, read-out: Minimal Inhibitory Concentrations S. aureus NRS70
[16] = Streptococcus pyogenes, ATCC700294, read-out: Minimal Inhibitory Concentrations S. pyogenes ATCC 700294

## C[C@H]1CC2C(=O)O[C@@H](C)[C@H](NC(=O)[C@H](Cc3cc(F)cc(F)c3)NC(=O)Nc3ccc(OC(F)(F)F)cc3)C(=O)N3CCCC3C(=O)N3CCOCC3C(=O)N[C@@H](C)C(=O)N2C1 (stereo partly drawn) [Compound 34, (S)-3-(3,5-difluorophenyl)-2-(3-(4-(trifluoromethoxy)phenyl)ureido)-N-((6aS,12S,13S,15aS,17S,21S,23aS)-13,17,21-trimethyl-6,11,15,20,23-pentaoxooctadecahydro-6H,11H,15H-[1,4]oxazino[3,4-i]dipyrrolo[2,1-c:2′,1′-l][1]oxa[4,7,10,13]tetraazacyclohexadecin-12-yl)propanamide] ({NH(4-OCF3-phenyl)-CO}-[Phe(3,5-F2)][aThr][ξP][X5]A[ξPro(4S-Me)]; ester 2-C)
[1]; African green monkey, 72 h
  IC50: 26 ± 2.6 µM
[2]; [10]
  MIC: 0.02 µM (≈ 0.0176 µg/mL)
[3]
  MIC: 0.05 µM (≈ 0.044 µg/mL)
[4]; [11]
  MIC: 0.02 µM (≈ 0.0176 µg/mL)
[5]; [12]
  MIC: 0.1 µM (≈ 0.088 µg/mL)
[6]
  Minimal Inhibitory Concentrations S. aureus USA 300 ΔClpP: 50 µM
[7]
  MIC: 0.05 µM (≈ 0.044 µg/mL)
[8]
  MIC: 0.049 µM (≈ 0.0431 µg/mL)

## Cc1ccc(NC(=O)N[C@@H](Cc2cc(F)cc(F)c2)C(=O)N[C@@H]2C(=O)N3CCCC3C(=O)N(C)[C@@H](C)C(=O)N[C@@H](C)C(=O)N3CCCC3C(=O)O[C@H]2C)cc1 (stereo partly drawn) [Compound 25, (2S)-3-(3,5-difluorophenyl)-N-((6S,9S,11aS,17S,18S)-6,9,10,18-tetramethyl-5,8,11,16,20-pentaoxohexadecahydro-1H,5H,16H-dipyrrolo[2,1-c:2′,1′-l][1]oxa[4,7,10,13]tetraazacyclohexadecin-17-yl)-2-(3-(p-tolyl)ureido)propanamide] ({NH(4-Me-phenyl)-CO}-[Phe(3,5-F2)][aThr][ξP][NMeA]A[ξP]; ester 2-C)
[1]; [13]
  IC50: 10.8 ± 1 µM
[2]; [14]
  MIC: 0.02 µM (≈ 0.0154 µg/mL)
[3]
  MIC: 0.78 µM (≈ 0.599 µg/mL)
[4]; [15]
  MIC: 0.78 µM (≈ 0.599 µg/mL)
[5]; [16]
  MIC: 1 µM (≈ 0.768 µg/mL)
[6]
  Minimal Inhibitory Concentrations S. aureus USA 300 ΔClpP: 200 µM
[7]
  MIC: 0.78 µM (≈ 0.599 µg/mL)
[8]
  MIC: 0.254 µM (≈ 0.195 µg/mL)

## CCCC/C=C/C(=O)N[C@@H](Cc1cc(F)cc(F)c1)C(=O)N[C@@H]1C(=O)N2CCC[C@H]2C(=O)N2CCCC[C@H]2C(=O)N[C@@H](C)C(=O)N2CCC[C@H]2C(=O)O[C@H]1C [ADEP 2719, reference compound] ({Heptenoyl(2E)}-[Phe(3,5-F2)][aThr]P[Pip]AP; ester 2-C)
[1]; [13]
  IC50: 37.7 ± 3.4 µM
[2]; [10]
  MIC: < 0.01 µM
[9]
  MIC: 0.08 µM (≈ 0.0617 µg/mL)
[3]
  MIC: 0.07 µM (≈ 0.054 µg/mL)
[4]; [11]
  MIC: 0.08 µM (≈ 0.0617 µg/mL)
[5]; [12]
  MIC: < 0.2 µM
[6]
  Minimal Inhibitory Concentrations S. aureus USA 300 ΔClpP: 500 µM
[7]
  MIC: < 0.19 µM

## Cc1ccc(NC(=O)N[C@@H](Cc2cc(F)cc(F)c2)C(=O)N[C@H]2COC(=O)[C@@H]3C[C@@H](C)CN3C(=O)[C@H](C)NC(=O)[C@@H]3CCCCN3C(=O)[C@@H]3CCCN3C2=O)cc1 [Compound 24, (S)-3-(3,5-difluorophenyl)-N-((2R,6S,8aS,14aS,20S,23aS)-2,6-dimethyl-5,8,14,19,23-pentaoxooctadecahydro-1H,5H,14H,19H-pyrido[2,1-i]dipyrrolo[2,1-c:2′,1′-l][1]oxa[4,7,10,13]tetraazacyclohexadecin-20-yl)-2-(3-(p-tolyl)ureido)propanamide]
[1]; [13]
  IC50: 93.8 ± 4.8 µM
[2]; [14]
  MIC: 2.2 µM (≈ 1.75 µg/mL)
[3]
  MIC: 0.5 µM (≈ 0.397 µg/mL)
[4]; [15]
  MIC: 0.5 µM (≈ 0.397 µg/mL)
[5]; [16]
  MIC: 0.5 µM (≈ 0.397 µg/mL)

## Cc1ccc(NC(=O)N[C@@H](Cc2cc(F)cc(F)c2)C(=O)N[C@H]2COC(=O)C3C[C@H](C)CN3C(=O)[C@H](C)NC(=O)C3CCCCN3C(=O)C3CCCN3C2=O)cc1 (stereo partly drawn) [Compound 45, (S)-3-(3,5-difluorophenyl)-N-((2S,6S,8aS,14aS,20S,23aS)-2,6-dimethyl-5,8,14,19,23-pentaoxooctadecahydro-1H,5H,14H,19H-pyrido[2,1-i]dipyrrolo[2,1-c:2′,1′-l][1]oxa[4,7,10,13]tetraazacyclohexadecin-20-yl)-2-(3-(p-tolyl)ureido)propanamide]
[1]; [13]
  IC50: 56.8 ± 6.7 µM
[3]
  MIC: 0.4 µM (≈ 0.318 µg/mL)
[4]; [15]
  MIC: 0.2 to 0.4 µM (≈ 0.159 to 0.318 µg/mL)
[5]; [16]
  MIC: 0.4 µM (≈ 0.318 µg/mL)
[6]
  Minimal Inhibitory Concentrations S. aureus USA 300 ΔClpP: 100 µM
[7]
  MIC: 0.4 µM (≈ 0.318 µg/mL)
[8]
  MIC: 0.1 µM (≈ 0.0794 µg/mL)
